Legend:
[1] = tested on: Fadu (human pharyngeal squamous cell carcinoma); test: In vitro inhibitory effect against human tumor cells (MTT); assay type: cell-based; settings: 72 h, 3 days
Description: (§1) Cells were cultured with 5% CO2 at 37°C and saturated humidity until they reached a logarithmic growth phase (usually adherent cells were nearly fully confluent). After removing adherent cells by trypsin/EDTA digestion, the cells were collected for subsequent experiments.
(§2) The cells were inoculated into a 96-well cell culture plate (hereinafter referred to as the 96-well plate) based on the cell count shown in Table 2, cultured overnight to achieve cell adherence, and then, after different concentrations of the test compound were added, further cultured for a total of 3 days. Finally, the total cell protein in the assay wells was assayed by SRB, or the cell viability was assessed by MTT:
(§3) 2.2 Assaying cell viability by MTT: the modification is based on the method in the literature (J. Carmichael, W. DeGraff, A. Gazdar et al., Evaluation of a tetrazolium-based semiautomated colorimetric assay: assessment of chemosensitivity testing. Cancer Research. 1987, 47: 936-942). Specific method: For well-adherent cells: the medium was pipetted out, 100 µL of a basal medium containing 0.5 mg/mL MTT (medium free of fetal bovine serum (FBS) and other additives) was added to each well, and culture was continued for additional 3 h. The MTT-containing basal medium was pipetted out, and 100 µL of DMSO was added to each well to dissolve formazan, followed by assay at a wavelength of 490 nm.
(§4) For poorly-adherent cells: MTT solution was directly added to a concentration of 0.5 mg/mL, culture was continued for additional 3 h, and an equal volume of triple solvent was added to the system to dissolve formazan, followed by assay at a wavelength of 570 nm.
(§5) 2.3: 1-2 mg of β-glucuronidase was weighed, and dissolved in PBS to prepare 2 mg/mL stock solution. Prior to use, the stock solution was diluted with a complete medium to prepare 12.5 µg/mL enzyme working solution. For assay wells requiring the enzyme, 80 µL of the enzyme working solution was added, with the β-glucuronidase at a concentration of 1 µg/well; and for assay wells not requiring the enzyme, 80 µL of the complete medium was added.
(§6) 1-3 mg of the test compound was weighed, and dissolved in DMSO to prepare 20 mM stock solution. The stock solution was diluted in a 3-fold gradient with DMSO, then diluted 100-fold with RPMI1640 basal medium to obtain 10× working solutions, with a total of 8 concentrations. 20 µL of the 10× working solutions were add to the assay wells, with the final volume of each well of 200 µL, and with the DMSO at a concentration of 0.1%.
(§7) 2.4 Calculation of inhibitory activity of compound: the experiment includes a compound test group, a compound-free positive solvent control group (PC), and a negative solvent control group (NC) without cells and the compound. Inhibition rate = [1−(testvalue−NCmean)/(PCmean−NCmean)] × 100% [formula]
(§8) The mean and SD of the inhibition rate were obtained from replicate assay wells. A curve was plotted with the compound concentrations distributed in a logarithmic form as the abscissa and with the mean inhibition rates as the ordinate, and was fitted with a 4-parameter logistic equation. The compound concentration corresponding to 50% inhibition rate on the curve is the IC50 value. Table 2: Culture medium formulation and cell inoculation concentration for human tumor cell lines

[2] = tested on: HCT116 (human colorectal cancer); test: as above; assay type: cell-based; settings: HCT-116, 72 h, 3 days
Description: as §1, §2, §3, §4, §5, §6, §7, §8

[3] = tested on: NCI-H1975 (human non-small cell lung cancer); test: as above; assay type: cell-based; settings: NCI-H1975, 72 h, 3 days
Description: as §1, §2, §3, §4, §5, §6, §7, §8

[4] = tested on: SK-OV-3 (human ovarian cancer); test: as above; assay type: cell-based; settings: SK-OV-3, 72 h, SK-OV-3, MTT, 3 days
Description: as §1, §2, §3, §4, §5, §6, §7, §8

[5] = tested on: 22RV1 (human prostate cancer); test: In vitro inhibitory effect against human tumor cells (SRB); assay type: cell-based; settings: 22Rv1, 72 h, 22RV1, SRB, 3 days
Description: as §1, §2
(§9) 2.1 Assaying total cell protein by SRB: the modification is based on the method in the literature (V. Vichai and K. Kirtikara. Sulforhodamine B colorimetric assay for cytotoxicity screening. Nature Protocols. 2006, 1: 1112-1116). Specific method: the culture medium was pipetted out from the wells, the cells were fixed with 10% trichloroacetic acid for more than 1 h, and trichloroacetic acid was removed; the cells were washed with H2O, and stained with 0.4% SRB for 15-30 min; after excess SRB was removed, the cells were washed with 1% acetic acid; 100 µl of 10 mM tris(trihydroxymethylaminomethane) was added to dissolve the protein-bound SRB, followed by assay at a wavelength of 570 nm.
as §5, §6, §7, §8

[6] = tested on: A375 (human malignant melanoma); test: as above; assay type: cell-based; settings: A-375, 72 h, 3 days
Description: as §1, §2, §9, §5, §6, §7, §8

[7] = tested on: HepG2 (human liver cancer cell); test: as above; assay type: cell-based; settings: HepG2, 72 h, 3 days
Description: as §1, §2, §9, §5, §6, §7, §8

[8] = tested on: BxPC-3 (human pancreatic cancer in situ); test: In vitro inhibitory effect against human tumor cells (MTT or SRB); assay type: cell-based; settings: BXPC-3, 72 h, BxPC-3, test method printed MTT (head: SRB), 3 days
Description: as §1, §2, §9, §3, §4, §5, §6, §7, §8

[9] = tested on: human ovarian cancer SK-OV-3; test: Biological Example 5: in vivo xenograft model of human ovarian cancer SK-OV-3; set-up: species or system Balb/c-nu nude mice; settings: SK-OV-3 xenograft, nude mice, 0.8 mg/kg i.v. qw×3
[10] = tested on: human non-small cell lung cancer NCI-H1975; test: Biological Example 7: in vivo xenograft model of human non-small cell lung cancer NCI-H1975; set-up: species or system Balb/c-nu nude mice; settings: nude mice; for Final body weight change (%) / Maximum body weight change (%) / Relative volume RTV (x±S.D.) / T/C (%) / Tumor inhibition rate (%) / Tumor weight (g, x±S.D.): 0.8 mg/kg i.v. qw×3; for Body weight (g, x±S.D.) End: 0.8 mg/kg i.v. qw×3, End; for Body weight (g, x±S.D.) Start: 0.8 mg/kg i.v. qw×3, Start
[11] = tested on: human non-small cell lung cancer NCI-H1975; test: Biological Example 10: in vivo xenograft model of human non-small cell lung cancer NCI-H1975; set-up: species or system Balb/c-nu nude mice; settings: nude mice
[12] = With addition of βGU (1 µg/well)

Structure (SMILES)	IC50 [1, 12]	IC50 ([1]; βGU-free)	IC50 [2, 12]	IC50 ([2]; βGU-free)	IC50 [3, 12]	IC50 ([3]; βGU-free)	IC50 [4, 12]	IC50 ([4]; βGU-free)	IC50 [5, 12]	IC50 ([5]; βGU-free)	IC50 [6, 12]	IC50 ([6]; βGU-free)	IC50 [7, 12]	IC50 ([7]; βGU-free)	IC50 [8, 12]	IC50 ([8]; βGU-free)	Final body weight change (%) [9]	Maximum body weight change (%) [9]	Relative volume RTV (x±S.D.) [9]	T/C (%) [9]	further results
CC[C@H](C)[C@@H]([C@@H](CC(=O)N1CCC[C@H]1[C@H](OC)[C@@H](C)C(=O)N[C@H](C)[C@@H](O)c1ccccc1)OC)N(C)C(=O)[C@@H](NC(=O)[C@H](C(C)C)[N+](C)(C)Cc1ccc(O[C@@H]2O[C@H](C(=O)[O-])[C@@H](O)[C@H](O)[C@H]2O)cc1OCc1cn(CCOCCC(=O)Nc2ccc(-c3ccc(/N=N/c4ccc5c(S(=O)(=O)[O-])cc(S(=O)(=O)[O-])c(N)c5c4O)c(C)c3)cc2C)nn1)C(C)C.[Na+].[Na+] [Example compound 9]	0.35 nM	25 nM	2.9 nM	69 nM	4.7 nM	69 nM	2.4 nM	65 nM	3.8 nM	86 nM	2.7 nM	27 nM	3.8 nM	88 nM	0.86 nM	28 nM	5.3%	5.3, d21%	0.05±0.03	0.4%	Tumor inhibition rate (%) [9]: 99.9%; Tumor weight (g, x±S.D.) [9]: 0.002 ± 0.001 g; Body weight (g, x±S.D.) End [9]: 25.8 ± 0.7 g; Body weight (g, x±S.D.) Start [9]: 24.5 ± 0.6 g; Final body weight change (%) [10]: 8.8%; Maximum body weight change (%) [10]: 8.8, d21%; Relative volume RTV (x±S.D.) [10]: 0.45±0.30; T/C (%) [10]: 3.2%; Tumor inhibition rate (%) [10]: 97.7%; Tumor weight (g, x±S.D.) [10]: 0.041 ± 0.051 g; Body weight (g, x±S.D.) End [10]: 28.3 ± 2.9 g; Body weight (g, x±S.D.) Start [10]: 26.1 ± 2.8 g; Final body weight change (%) ([11]; 0.4 mg/kg i.v. qw×2): 4.8%; Maximum body weight change (%) ([11]; 0.4 mg/kg i.v. qw×2): 4.8, d28%; Relative volume RTV (x±S.D.) ([11]; 0.4 mg/kg i.v. qw×2): 0.38±0.05; T/C (%) ([11]; 0.4 mg/kg i.v. qw×2): 7.7%; Tumor inhibition rate (%) ([11]; 0.4 mg/kg i.v. qw×2): 93.4%; Tumor weight (g, x±S.D.) ([11]; 0.4 mg/kg i.v. qw×2): 0.073 ± 0.016 g; Body weight (g, x±S.D.) End 24d ([11]; 0.4 mg/kg i.v. qw×2, End 24d): 23.5 ± 0.6 g; Body weight (g, x±S.D.) Start ([11]; 0.4 mg/kg i.v. qw×2, Start): 22.5 ± 1.4 g
CC[C@H](C)[C@@H]([C@@H](CC(=O)N1CCC[C@H]1[C@H](OC)[C@@H](C)C(=O)N[C@H](C)[C@@H](O)c1ccccc1)OC)N(C)C(=O)[C@@H](NC(=O)[C@H](C(C)C)[N+](C)(CC)Cc1ccc(O[C@@H]2O[C@H](C(=O)[O-])[C@@H](O)[C@H](O)[C@H]2O)cc1OCc1cn(CCCOCC(=O)Nc2ccc(-c3ccc(/N=N/c4ccc5c(S(=O)(=O)[O-])cc(S(=O)(=O)[O-])c(N)c5c4O)c(C)c3)cc2C)nn1)C(C)C.[Na+].[Na+] (stereo partly drawn) [Example compound 11]	0.61 nM	21 nM	1.1 nM	55 nM	1.7 nM	64 nM	1.7 nM	77 nM	2.2 nM	63 nM	1.6 nM	45 nM	3 nM	66 nM	0.4 nM	15 nM	5.7%	5.7, d21%	0.19±0.23	1.7%	Tumor inhibition rate (%) [9]: 99.3%; Tumor weight (g, x±S.D.) [9]: 0.011 ± 0.013 g; Body weight (g, x±S.D.) End [9]: 25.7 ± 0.8 g; Body weight (g, x±S.D.) Start [9]: 24.4 ± 0.9 g; Final body weight change (%) [10]: 6.7%; Maximum body weight change (%) [10]: 6.7, d21%; Relative volume RTV (x±S.D.) [10]: 0.74±0.51; T/C (%) [10]: 5.2%; Tumor inhibition rate (%) [10]: 96.6%; Tumor weight (g, x±S.D.) [10]: 0.061 ± 0.049 g; Body weight (g, x±S.D.) End [10]: 27.0 ± 2.2 g; Body weight (g, x±S.D.) Start [10]: 25.3 ± 1.6 g
